Source: patent publication US20150225404A1, “PYRIDINE DERIVATIVE AND MEDICINE” (NIPPON SHINYAKU CO., LTD., priority 2012, published 2015)
Structures can show the parent of a compound that is named as a salt. Where two headings read alike, the source gives them in different places.

Legend:
human mGluR5 = target: T1, human mGluR5 (Homo sapiens, UniProt P41594); experiment: Experiment for receptor function of mGluR5 (Ca2+-dependent fluorescence, FLIPR, CHO-K1 cells stably expressing human mGluR5); assay type: cell-based; settings: L-glutamic acid 10 μM, Fluo-4 fluorescence
T1 construct: expressed in transfected cells
T1 sequence (P41594 21-1212): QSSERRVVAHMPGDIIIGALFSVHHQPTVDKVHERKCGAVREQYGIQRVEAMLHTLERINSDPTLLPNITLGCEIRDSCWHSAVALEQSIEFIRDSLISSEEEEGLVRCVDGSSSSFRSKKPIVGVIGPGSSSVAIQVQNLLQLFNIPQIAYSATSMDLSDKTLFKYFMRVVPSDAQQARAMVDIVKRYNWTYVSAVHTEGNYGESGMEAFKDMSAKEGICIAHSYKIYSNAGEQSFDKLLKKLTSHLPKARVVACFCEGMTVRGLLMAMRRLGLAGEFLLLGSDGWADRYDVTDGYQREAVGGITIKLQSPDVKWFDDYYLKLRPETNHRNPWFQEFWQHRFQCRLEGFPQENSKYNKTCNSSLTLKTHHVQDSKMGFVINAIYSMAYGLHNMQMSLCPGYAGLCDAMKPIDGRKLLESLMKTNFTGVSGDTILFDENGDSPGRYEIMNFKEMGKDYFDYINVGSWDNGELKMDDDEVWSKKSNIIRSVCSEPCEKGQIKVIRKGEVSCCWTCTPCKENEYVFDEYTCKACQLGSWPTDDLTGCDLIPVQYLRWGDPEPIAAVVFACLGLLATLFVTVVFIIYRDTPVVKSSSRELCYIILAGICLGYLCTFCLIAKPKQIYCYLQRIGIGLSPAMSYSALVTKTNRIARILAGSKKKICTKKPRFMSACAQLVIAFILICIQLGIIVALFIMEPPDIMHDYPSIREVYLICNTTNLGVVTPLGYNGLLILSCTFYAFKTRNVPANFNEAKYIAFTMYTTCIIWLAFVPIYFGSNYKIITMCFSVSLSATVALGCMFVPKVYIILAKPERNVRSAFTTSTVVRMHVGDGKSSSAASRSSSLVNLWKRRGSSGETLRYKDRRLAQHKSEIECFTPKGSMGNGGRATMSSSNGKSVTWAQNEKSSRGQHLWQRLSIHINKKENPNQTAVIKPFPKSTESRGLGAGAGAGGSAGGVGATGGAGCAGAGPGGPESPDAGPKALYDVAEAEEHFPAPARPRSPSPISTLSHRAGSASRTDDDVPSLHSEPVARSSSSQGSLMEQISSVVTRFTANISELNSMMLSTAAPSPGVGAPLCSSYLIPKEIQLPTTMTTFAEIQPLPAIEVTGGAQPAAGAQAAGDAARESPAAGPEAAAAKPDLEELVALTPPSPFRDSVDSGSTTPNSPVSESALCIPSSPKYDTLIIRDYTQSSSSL
In short: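 Fluo-4-loaded CHO-K1 cells pre-incubated 2 min with test substance, then stimulated with L-glutamic acid (final 10 μM) in HBSS, pH 7.4. FLIPR Ca2+ fluorescence normalized to glutamate alone (100%) and glutamate with 10 μM MPEP (0%); IC50 estimated by logistic fit.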

male Slc:ICR mice [1] = experiment: Action against formalin-induced pain behavior in mice; assay type: in vivo; settings: Mus musculus, iv, 0.1 h, test substance 1 mg/kg intravenously, 6 minutes observation, read-out: Percent inhibition of pain-related behavior time (%)
Description: 4 to 6-week-old male Slc:ICR mice (available from Japan SLC, Inc.) were used. A medium or a test substance (1 mg/kg or 3 mg/kg) was intravenously administered to each mouse, and immediately thereafter, 20 μL of 1% or 5% formalin was subcutaneously administered to a right hind paw of the mouse. Thereafter, the mice were quickly put into an observation cage and measured for the total time (sec) of pain-related behavior (licking or biting behavior against the right hindlimb) during 6 minutes, and an average value of the pain-related behavior time of each group was calculated.
The intensity of an analgesic action of the test substance was evaluated in terms of percent inhibition (%) of pain-related behavior time which is calculated as {(A−B)/A×100}, wherein A is an average value of the pain-related behavior time of a medium-administered group, and B is an average value of the pain-related behavior time of a test substance-administered group.

male Slc:ICR mice [2] = experiment: Action against pain-related behavior and micturition cycle in mice with cyclophosphamide (CP)-induced acute cystitis; assay type: in vivo; settings: Mus musculus, iv, 0.25 h, CP 300 mg/kg i.p., 15 minutes observation; for inhibition in vivo at 3 mg/kg: test substance 3 mg/kg intravenously 3 hours after CP; for inhibition in vivo at 1 mg/kg: test substance 1 mg/kg intravenously 3 hours after CP
Description: An action of a test substance against visceral pain and frequent urination associated with cystitis, which was induced by intraperitoneal administration (20 mL/kg) of CP (300 mg/kg) to 4 to 5-week-old male Slc:ICR mice (available from Japan SLC, Inc.), was investigated. This experiment was performed according to a method described in European Journal of Pharmacology, 676 (2012), pp. 75-80.
Three hours after the administration of CP, a test substance (1 mg/kg or 3 mg/kg) was intravenously administered, and observation by visual inspection and video recording were performed for 15 minutes immediately thereafter. In the observation by visual inspection, four pain-related behaviors (eye opening, rounded back, leg dragging, and behavior during urination) were scored, each rated on a scale of 0-10, according to the following criteria.
Eye opening (normal: 0 point, sometimes closed or half-open eyes: 5 points, completely closed: 10 points)
Rounded back (normal: 0 point, sometimes crouched: 5 points, crouched at almost all times: 10 points)
Leg dragging (normal: 0 point, leg dragging: 10 points)
Behavior during urination (normal: 0 point, shaking hip in micturition: 10 points)
In addition, the video was played back, and the frequency of licking behavior around the abdomen as a pain-related behavior was scored, rated on a scale of 0-10, according to the following criteria.
Licking behavior around the abdomen (0 to 3 times: 0 point, 4 times to 10 times: 5 points, 11 times or more: 10 points)
Furthermore, the video was played back, and the frequency of urination (urination marks) on a filter paper was counted and taken as an index for micturition cycle.
An average value of the pain-related behavior score of each group (total score of the five items: 50 points at maximum) and an average value of the frequency of urination (urination marks) on the filter paper were determined.
The strength of an analgesic action of the test substance against the CP-induced visceral pain was evaluated in terms of percent inhibition (%) of pain-related behavior score which is calculated as {(A−B)/A×100}, wherein A is an average value of the pain-related behavior score of a medium-administered group, and B is an average value of the pain-related behavior score of a test substance-administered group.
In addition, the strength of a frequent urination inhibitory action of the test substance against the CP-induced frequent urination was evaluated in terms of percent inhibition (%) of the frequency of urination which is calculated as {(C−D)/C×100}, wherein C is an average value of the frequency of urination of a medium-administered group, and D is an average value of the frequency of urination of a test substance-administered group.

[3] = read-out: Percent inhibition of pain-related behavior score (%)
[4] = read-out: Percent inhibition of the frequency of urination (%)

Row | IC50 (human mGluR5) [nM] | Compound | inhibition in vivo at 1 mg/kg (male Slc:ICR mice [1]; 1% formalin) [%] | inhibition in vivo at 3 mg/kg (male Slc:ICR mice [2]; [3]) [%] | inhibition in vivo at 3 mg/kg (male Slc:ICR mice [2]; [4]) [%] | inhibition in vivo at 1 mg/kg (male Slc:ICR mice [1]; 5% formalin) [%] | inhibition in vivo at 1 mg/kg (male Slc:ICR mice [2]; [3]) [%] | inhibition in vivo at 1 mg/kg (male Slc:ICR mice [2]; [4]) [%]
1 | 56.3 | N#Cc1nccnc1-c1cc(OCc2ccccn2)nc2c1CCCC2 [Example 198, 3-[2-(Pyridin-2-ylmethoxy)-5,6,7,8-tetrahydroquinolin-4-yl]pyrazine-2-carbonitrile hydrochloride] | 24.7 | 40.4 | 37.6 | – | – | –
2 | 161 | N#Cc1ncc(-c2cc(OCc3ccccn3)nc3c2CCCC3)cn1 [Example 173, 5-[2-(Pyridin-2-ylmethoxy)-5,6,7,8-tetrahydroquinolin-4-yl]pyrimidine-2-carbonitrile hydrochloride] | – | 63.3 | 52.6 | 65.4 | – | –
3 | 73.6 | Fc1cccnc1COc1cc(-c2cncnc2)c2c(n1)CCC2 [Example 26, 2-[(3-Fluoropyridin-2-yl)methoxy]-4-(pyrimidin-5-yl)-6,7-dihydro-5H-cyclopenta[b]pyridine] | 71.9 | 60.5 | 57.3 | – | – | –
4 | 36 | Cc1ncc(-c2cc(OCc3ncccc3F)nc3c2CCCC3)cn1 [Example 187, 2-[(3-Fluoropyridin-2-yl)methoxy]-4-(2-methylpyrimidin-5-yl)-5,6,7,8-tetrahydroquinoline] | – | – | – | 59.4 | 22.9 | 51.6
5 | 131 | Cc1cncc(-c2cc(OCc3ncccc3F)nc3c2CCCC3)n1 [Example 214, 2-[(3-Fluoropyridin-2-yl)methoxy]-4-(6-methylpyrazin-2-yl)-5,6,7,8-tetrahydroquinoline] | – | 44.2 | 25.3 | 55.3 | – | –
